Measurements reported in ChEMBL document CHEMBL4811252, “Identification of novel 1,3-diaryl-1,2,4-triazole-capped histone deacetylase 6 inhibitors with potential anti-gastric cancer activity” (Eur J Med Chem, 2021).

What was measured:
[1] = molecular target: T1, Protein deacetylase HDAC6 (Homo sapiens) (UniProt Q9UBN7); settings: Sf9, dose 100.0 nM, time 40.0 min
T1 sequence (whole entry): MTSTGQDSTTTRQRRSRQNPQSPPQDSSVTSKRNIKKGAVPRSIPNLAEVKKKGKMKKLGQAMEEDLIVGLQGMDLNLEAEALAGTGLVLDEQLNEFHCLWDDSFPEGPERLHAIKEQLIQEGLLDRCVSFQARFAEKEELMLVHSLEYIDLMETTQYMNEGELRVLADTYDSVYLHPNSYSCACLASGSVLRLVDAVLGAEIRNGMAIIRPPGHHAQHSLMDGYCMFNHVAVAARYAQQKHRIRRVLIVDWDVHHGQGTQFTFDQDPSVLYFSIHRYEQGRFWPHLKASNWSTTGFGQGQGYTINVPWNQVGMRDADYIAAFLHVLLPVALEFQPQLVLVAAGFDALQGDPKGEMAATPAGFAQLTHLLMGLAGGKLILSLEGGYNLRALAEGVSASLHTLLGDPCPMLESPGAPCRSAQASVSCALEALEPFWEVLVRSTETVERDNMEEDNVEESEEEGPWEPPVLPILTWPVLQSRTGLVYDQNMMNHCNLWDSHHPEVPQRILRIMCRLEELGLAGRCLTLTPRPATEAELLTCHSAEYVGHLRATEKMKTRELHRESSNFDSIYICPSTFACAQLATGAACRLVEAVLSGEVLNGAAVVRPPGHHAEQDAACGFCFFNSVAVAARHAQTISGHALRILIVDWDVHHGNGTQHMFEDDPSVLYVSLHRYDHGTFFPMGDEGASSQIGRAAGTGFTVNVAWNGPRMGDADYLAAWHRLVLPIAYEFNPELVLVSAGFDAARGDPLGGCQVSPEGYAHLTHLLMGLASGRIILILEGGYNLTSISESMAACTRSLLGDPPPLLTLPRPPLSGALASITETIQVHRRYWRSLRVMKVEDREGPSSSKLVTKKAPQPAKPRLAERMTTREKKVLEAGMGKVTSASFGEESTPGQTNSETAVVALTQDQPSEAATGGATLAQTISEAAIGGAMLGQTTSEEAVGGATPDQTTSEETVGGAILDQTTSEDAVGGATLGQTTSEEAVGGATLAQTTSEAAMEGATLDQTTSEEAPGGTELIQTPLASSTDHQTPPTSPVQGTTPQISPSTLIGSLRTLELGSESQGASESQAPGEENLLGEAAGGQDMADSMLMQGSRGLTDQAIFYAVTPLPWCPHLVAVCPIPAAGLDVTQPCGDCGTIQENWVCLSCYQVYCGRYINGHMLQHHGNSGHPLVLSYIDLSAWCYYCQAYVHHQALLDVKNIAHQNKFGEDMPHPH

[2] = molecular target: T2, Protein deacetylase HDAC6 (Homo sapiens, UniProt Q9UBN7); assay: Inhibition of recombinant full length human HDAC6 expressed in baculovirus infected Sf9 cells using Z-(Ac)-Lys-AMC as substrate incubated for 40 mins by fluorescence based assay
T2 sequence (Q9UBN7 whole entry): T1 sequence (whole entry)

MGC-803 = assay: Antiproliferative activity against human MGC803 cells incubated for 72 hrs by MTT assay; format: functional, cell-based; settings: MGC-803, 72 h
Histone deacetylase 1 [3] = molecular target: T3, Histone deacetylase 1 (Homo sapiens, UniProt Q13547); assay: Inhibition of recombinant human HDAC1 using Z-(Ac)-Lys-AMC as substrate incubated for 40 mins by fluorescence based assay
T3 sequence (Q13547 whole entry): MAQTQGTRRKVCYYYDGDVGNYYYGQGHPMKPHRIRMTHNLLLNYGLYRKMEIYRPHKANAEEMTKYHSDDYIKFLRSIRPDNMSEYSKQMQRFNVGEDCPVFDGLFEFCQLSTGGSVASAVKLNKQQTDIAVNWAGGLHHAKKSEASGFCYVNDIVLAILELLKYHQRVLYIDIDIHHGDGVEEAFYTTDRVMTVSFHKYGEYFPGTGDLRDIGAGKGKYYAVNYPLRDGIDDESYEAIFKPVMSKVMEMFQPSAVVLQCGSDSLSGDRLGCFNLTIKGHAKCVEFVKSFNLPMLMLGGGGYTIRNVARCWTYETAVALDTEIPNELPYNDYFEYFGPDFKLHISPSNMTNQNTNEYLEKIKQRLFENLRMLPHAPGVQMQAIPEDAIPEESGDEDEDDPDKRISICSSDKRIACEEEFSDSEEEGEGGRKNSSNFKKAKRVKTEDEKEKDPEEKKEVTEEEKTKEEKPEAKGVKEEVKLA

Histone deacetylase 1 [4] = molecular target: T3, Histone deacetylase 1; settings: dose 100.0 nM, time 40.0 min

inhibition [1] | IC50 [2] | IC50 (MGC-803) | IC50 (Histone deacetylase 1 [3]) | inhibition (Histone deacetylase 1 [4]) | SMILES
58.6% | – | – | – | 16% | O=C(NO)c1ccc(NCc2nc(-c3ccccn3)nn2-c2ccccc2)cc1
65.9% | 1730 nM | 9300 nM | 3200 nM | 18.2% | O=C(NO)c1ccc(NCc2nc(-c3ccccc3)nn2-c2ccc(Br)cc2)cc1
61.2% | 115 nM | 5760 nM | 1870 nM | 17% | O=C(NO)c1ccc(NCc2nc(-c3cccc(Cl)c3)nn2-c2ccccc2)cc1
59.9% | – | – | – | 16.7% | O=C(NO)c1ccc(NCc2nc(-c3ccco3)nn2-c2ccccc2)cc1
55.8% | – | – | – | 13.8% | O=C(NO)c1ccc(NCc2nc(-c3ccc(Br)o3)nn2-c2ccccc2)cc1
34.5% | – | – | – | 7.6% | O=C(NO)c1ccc(NCc2nc(-c3ccc(Cl)c(Cl)c3)nn2-c2ccccc2)cc1
71.1% | 54.9 nM | 6320 nM | 2080 nM | 23.7% | O=C(NO)c1ccc(NCc2nc(-c3sccc3Br)nn2-c2ccccc2)cc1
39.8% | – | – | – | 8.3% | O=C(NO)c1ccc(NCc2nc(-c3ccc(Cl)s3)nn2-c2ccccc2)cc1
67.2% | 181 nM | 5970 nM | 2420 nM | 19.5% | O=C(NO)c1ccc(NCc2nc(-c3ccc(Cl)cc3)nn2-c2ccccc2)cc1
30.8% | – | – | – | 7.5% | O=C(NO)c1ccc(NCc2nc(-c3ccncc3)nn2-c2ccccc2)cc1
62.2% | 224 nM | > 20000 nM | 3100 nM | 20.3% | Cc1ccc(-c2nc(CNc3ccc(C(=O)NO)cc3)n(-c3ccccc3)n2)cc1
72.1% | 30.7 nM | 8890 nM | 3200 nM | 26.3% | Cc1ccsc1-c1nc(CNc2ccc(C(=O)NO)cc2)n(-c2ccccc2)n1
54.6% | – | – | – | 13.2% | CCc1ccc(-c2nc(CNc3ccc(C(=O)NO)cc3)n(-c3ccccc3)n2)cc1
53.2% | – | – | – | 16.5% | Cc1ccccc1-c1nc(CNc2ccc(C(=O)NO)cc2)n(-c2ccccc2)n1
53.4% | – | – | – | 15.2% | O=C(NO)c1ccc(NCc2nc(-c3ccsc3)nn2-c2ccccc2)cc1
57.7% | – | – | – | 12.9% | O=C(NO)c1ccc(NCc2nc(-c3cccnc3)nn2-c2ccccc2)cc1
55.4% | – | – | – | 18% | O=C(NO)c1ccc(NCc2nc(-c3ccccc3)nn2-c2ccc(Cl)cc2)cc1
72.6% | 112 nM | 17700 nM | 2490 nM | 19% | O=C(NO)c1ccc(NCc2nc(-c3ccccc3)nn2-c2ccccc2)cc1
54.7% | – | – | – | 13.2% | O=C(NO)c1ccc(NCc2nc(-c3ccc(Br)cc3)nn2-c2ccccc2)cc1
75% | 185 nM | > 20000 nM | 3830 nM | 15.6% | O=C(NO)c1ccc(NCc2nc(-c3ccccc3Cl)nn2-c2ccccc2)cc1
60.7% | – | – | – | 22.3% | Cc1ccc(-c2nc(CNc3ccc(C(=O)NO)cc3)n(-c3ccccc3)n2)o1
77.6% | 163 nM | > 20000 nM | 2860 nM | 33.4% | COc1ccc(-c2nc(CNc3ccc(C(=O)NO)cc3)n(-c3ccccc3)n2)cc1
64.1% | 281 nM | 8710 nM | 5520 nM | 13% | Cc1cccc(-c2nc(CNc3ccc(C(=O)NO)cc3)n(-c3ccccc3)n2)c1
70.9% | 114 nM | 8960 nM | 3400 nM | 20.8% | O=C(NO)c1ccc(NCc2nc(-c3ccc(F)cc3)nn2-c2ccccc2)cc1

The next lines start with the compound.

SMILES | inhibition [1] | IC50 [2] | IC50 (MGC-803) | IC50 (Histone deacetylase 1 [3]) | inhibition (Histone deacetylase 1 [4])
Cc1cccc(-n2nc(-c3ccccc3)nc2CNc2ccc(C(=O)NO)cc2)c1 | 66% | 388 nM | 13200 nM | 3850 nM | 18.4%
O=C(NO)c1ccc(NCc2nc(-c3ccccc3)nn2-c2ccccc2Cl)cc1 | 64.6% | 669 nM | 9630 nM | 3120 nM | 17%
O=C(NO)c1ccc(NCc2nc(-c3cccs3)nn2-c2ccc(O)cc2)cc1 | 79.6% | 33.5 nM | > 20000 nM | 1500 nM | 38.4%
Nc1ccccc1NC(=O)c1ccc(NCc2nc(-c3ccccc3)nn2-c2ccccc2)cc1 | 5% | – | – | – | 32%
CCc1ccc(-n2nc(-c3ccccc3)nc2CNc2ccc(C(=O)NO)cc2)cc1 | 38.3% | – | – | – | 10.8%
NC(=O)c1ccc(NCc2nc(-c3ccccc3)nn2-c2ccccc2)cc1 | -4.4% | – | – | – | -2.6%
O=C(NO)c1ccc(NCc2nc(-c3ccccc3)nn2-c2cccc(Cl)c2)cc1 | 62.3% | 678 nM | 13700 nM | 4400 nM | 14.7%
O=C(NO)c1ccc(NCc2nc(-c3cccc4cnccc34)nn2-c2ccccc2)cc1 | 40.2% | – | – | – | 11.2%
O=C(O)c1ccc(NCc2nc(-c3ccccc3)nn2-c2ccccc2)cc1 | -0.4% | – | – | – | 2.1%
O=C(NO)c1ccc(NCc2nc(-c3ccccc3)nn2-c2ccc(F)cc2)cc1 | 67.6% | 274 nM | 10500 nM | 1820 nM | 16.3%
Cc1cc(C)cc(-n2nc(-c3ccccc3)nc2CNc2ccc(C(=O)NO)cc2)c1 | 49.8% | – | – | – | 12.4%
COc1ccc(-n2nc(-c3ccc(O)cc3)nc2CNc2ccc(C(=O)NO)cc2)cc1 | 70.3% | 102 nM | > 20000 nM | 4300 nM | 25.9%
CNC(=O)c1ccc(NCc2nc(-c3ccccc3)nn2-c2ccccc2)cc1 | -3.6% | – | – | – | -0.55%
Cc1ccc(-n2nc(-c3ccccc3)nc2CNc2ccc(C(=O)NO)cc2)cc1C | 53% | – | – | – | 11%
COc1ccc(-n2nc(-c3ccccc3)nc2CNc2ccc(C(=O)NO)cc2)cc1 | 63.4% | 127 nM | 7050 nM | 883 nM | 26.2%
Cc1ccccc1-n1nc(-c2ccccc2)nc1CNc1ccc(C(=O)NO)cc1 | 57.1% | – | – | – | 17%
O=C(NO)c1ccc(NCc2nc(-c3ccc(C(F)(F)F)cc3)nn2-c2ccccc2)cc1 | 41.6% | – | – | – | 4.9%
CC(C)c1ccc(-c2nc(CNc3ccc(C(=O)NO)cc3)n(-c3ccccc3)n2)cc1 | 27.6% | – | – | – | 4.3%
O=C(NO)c1ccc(NCc2nc(-c3cc4ccccc4s3)nn2-c2ccccc2)cc1 | 65.5% | 324 nM | 6110 nM | 1460 nM | 26%
Cc1ccc(-n2nc(-c3ccccc3)nc2CNc2ccc(C(=O)NO)cc2)cc1 | 60.7% | 310 nM | – | 1720 nM | 24.6%
O=C(NO)c1ccc(NCc2nc(-c3ccccc3)nn2-c2ccc(C(F)(F)F)cc2)cc1 | 38.9% | – | – | – | 12.8%
CC(C)c1ccc(-n2nc(-c3ccccc3)nc2CNc2ccc(C(=O)NO)cc2)cc1 | 52.6% | – | – | – | 17.3%
NNC(=O)c1ccc(NCc2nc(-c3ccccc3)nn2-c2ccccc2)cc1 | 10% | – | – | – | 4.1%
